Assay results as given in patent EP0654042B1, “AMYLIN MUTEINS” (PFIZER INC., priority 1992, dated 1998).
Bridge positions count the residues as written; N and C are the ends. Ends that are not written are not given here.

Tests used:
muscle or muscle cells = test: suppression of insulin action (insulin action suppressing activity); conditions: qualitative statement; no data or test conditions printed
Text: The phrase "insulin action suppressing activity", as used throughout this Specification and the appendant claims, includes, but is not limited to, the ability of a polypeptide of this invention to suppress the effect which insulin has upon muscle or muscle cells. By way of example and not of limitation, the polypeptides of this invention suppress insulin-stimulated glycogen synthesis in muscle or muscle cells.

isolated soleus muscle = conditions: Leighton et al. 1988, Cooper et al. 1988; cited from earlier work

Bolton-Hunter derivative of amylin: Bolton-Hunter derivative of amylin of the drawn formula wherein W is SEQUENCE ID NO:1 (KCNTATCATQRLANFLVHSSNNFGAILSSTNVGSNTY; not fully specified (C-terminus, bridges); cysteine pairing not given here; also: Bolton-Hunter reagent derivative, attachment site not given here; UniProt P10997 34-70, looked up)
suppress insulin action (muscle or muscle cells): will not suppress insulin action

amylin: 37 amino acid polypeptide with a disulfide bond between Cys 2 and 7; secretory product of pancreatic β cells (KCNTATCATQRLANFLVHSSNNFGAILSSTNVGSNTY; disulfide 2-7; not fully specified (C-terminus); UniProt P10997 34-70, looked up)
insulin-stimulated glycogen synthesis (isolated soleus muscle): suppresses insulin-stimulated glycogen synthesis
